Laboratory results taken from PMC8148468, “Shikimic acid protects skin cells from UV-induced senescence through activation of the NAD+-dependent deacetylase SIRT1” (Aging (Albany NY), 2021).

tested on: primary human dermal fibroblasts (HDFs); assay: not given; settings: HDFs, WST-1 cell viability test
Description: In our efforts to identify novel factors that could prevent skin cell senescence, we developed a screening process to identify new modulators of the protective role of sirtuins in UV-induced senescence. For this purpose, we established a culture of primary human dermal fibroblasts (HDFs). […] Our first step in the screening was to establish the optimal concentrations of these compounds in the case of HDFs. […] Once established, we took these parameters into account to decide the specific working range of concentrations for each compound.
Human dermal fibroblasts (HDFs) (Promocell, Germany) from 40-year old Caucasian women were used as the in vitro model for compound viability and efficacy screening. Cells were cultured in Dulbecco's modified eagle medium (DMEM) low glucose (Biowest, France) supplemented with 10% fetal bovine serum (FBS) (Capricorn Scientific, Germany) and 10 U/mL penicillin/streptomycin (Biowest, France) in a humidified incubator at 37° C and 5% CO2. For cell passage, cells at 80% confluence were trypsinized and plated at 60% confluence. Cells between passage 13 and 18 were used for the assays. For the SIRT1 in vitro assay, HEK293 cells (ATCC, USA), used to transfect and immunoprecipitate SIRT1 protein, were grown in DMEM high glucose (Thermo Fisher Scientific, USA), supplemented with 10% FBS in a humidified incubator at 37° C and 5% CO2. The following experiments were all performed in triplicate.
(§1) The protocol for senescence induction using UVB irradiation is described in the Supplementary Methods. SA-β-Gal staining, WST-1, sulforhodamine B (SRB) and trypan blue assays were performed as previously described. For the siRNA experiments, the protocol for senescence induction using UVB irradiation was the same as in the Supplementary Methods. Specific siRNA (Horizon discovery, UK) for SIRT1, SIRT2, SIRT6, BiP or scramble siRNA were incubated for 6 hours before each irradiation step.

| Structure (SMILES) | LD50 |
| --- | --- |
| C[C@@H]1O[C@@H](O[C@@H]2[C@@H](O)[C@H](OCCc3ccc(O)c(O)c3)O[C@H](CO)[C@H]2OC(=O)/C=C/c2ccc(O)c(O)c2)[C@H](O)[C@H](O)[C@H]1O [Verbascoside] | 0.122 mM |

same assay, conditions: HDFs, WST-1 cell viability test, maximum non-cytotoxic dose

| Structure (SMILES) | Max. non-cyt. doses |
| --- | --- |
| C[C@@H]1O[C@@H](O[C@@H]2[C@@H](O)[C@H](OCCc3ccc(O)c(O)c3)O[C@H](CO)[C@H]2OC(=O)/C=C/c2ccc(O)c(O)c2)[C@H](O)[C@H](O)[C@H]1O [Verbascoside] | 0.05 mM |

same assay, conditions: female, human

| Structure (SMILES) | LD50 | Max. non-cyt. doses |
| --- | --- | --- |
| NC(=O)NC1NC(=O)NC1=O (stereo not shown) [Allantoin, reference compound] | 100 mM | 50 mM |
| O=C(O)c1cc(O)c(O)c(O)c1 [Gallic acid] | 0.179 mM | 0.1 mM |
| COC1=C(OC)C(=O)C(CCCCCCCCCCO)=C(C)C1=O [Idebenone, reference compound] | 0.021 mM | 0.01 mM |
| O=C(CCc1ccc(O)cc1)c1c(O)cc(O)cc1O [Phloretin] | 0.166 mM | 0.05 mM |
| NCCS(=O)(=O)O [Taurine] | 396.58 mM | 150 mM |

tested on: HAS2 (hyaluronic acid synthase 2); assay: UVB-induced senescence assay: HAS2 gene expression (qPCR); type: cell-based, human; settings: HDF, 2 cycles of UVB, compound day 1 to 7, Figure 2B; note: key: ↑: increase; ↓: decrease; hyphens that indicate no effect (-)
Experimental: (§2) In the second approach, we established a method for inducing senescence in these cells with 2 cycles of UVB irradiation 72h apart (Figure 2A). The use of UVA to induce senescence was discarded due to its considerably longer time requirement, being unsuitable to screen 30 compounds within a reasonable period. Cells were treated with these compounds throughout the duration of the assay and cellular senescence was monitored with two markers: accumulation of SA-β-galactosidase (SA-β-Gal) activity, and the decrease in expression of HAS2 (hyaluronic acid synthase 2), a previously reported marker of skin senescence.
(§3) Figure 2 (A) Schematic representation of the protocol for senescence induction using UVB irradiation. Cells were treated -/+ the compounds from day 1 to 7 after seeding, irradiated with UVB on days 2 and 5 and harvested for analysis on day 7. […] (C) Phase-contrast (left column) and bright field (right column) microscope images of SA-β-Gal staining showing non-irradiated cells, UVB-irradiated cells non-treated and treated with Gallic acid or Shikimic acid at the indicated concentrations. (D) Percentage of SA-β-Gal positive cells and (E) Relative HAS2 mRNA levels in non-irradiated cells, UVB-irradiated cells and UVB-irradiated cells treated with Gallic acid or Shikimic acid at the indicated concentrations. Student T-test, *p<0.05, **p<0.01, ***p<0.001.
RNA was extracted from cell pellets using the Total RNA Purification Kit (Norgen, Canada), according to the manufacturer’s protocol. Extracted RNA was quantified using a NanoDrop® ND-1000 UV-Vis Spectrophotometer (Thermo Fisher Scientific, USA) and 300 ng of RNA were retrotranscribed to cDNA using the PrimeScriptTM RT reagent kit (Takara Bio Inc., Japan). cDNA was diluted 1/10 in ultrapure water and qPCR mix was prepared by adding cDNA (12 ng), SYBR green supermix (Bio Rad, USA), forward and reverse primers (0.2μM). The primers and their respective sequences are listed in Supplementary Table 1. qPCR protocol included one step at 95° C for 30 s, 40 cycles at 95° C for 10s, and 60° C for 1min. The results were analyzed with Bio-Rad CFX Manager software. BACT was used as a housekeeping gene to normalize gene expression.
(§4) Senescence induction by UVB irradiation For the non-irradiation control conditions, HDF were […]
(§5) After 24h, culture medium was removed and well plates. After 24h, culture medium was removed replaced by fresh cell culture medium containing the and replaced with fresh cell culture medium containing compounds at different concentrations. After 24h, the compounds at different concentrations. […]
(§6) cell culture medium was removed, and cells were cells/plate in fresh cell culture medium containing the irradiated at 25 mJ/cm2 of UVB light (312 nm) in a Bio- compound in 6-well plates. After 3 days, cells were […]
(§7) amount of PBS. PBS was then removed and fresh cell fresh cell culture medium containing the compound in culture medium with the compound was added to each 6-well plates. After 2 days, cells were processed well. After 3 days, cells were irradiated again under the according to the qPCR, β-Gal staining, apoptosis, cell same conditions. After 2 days, cells were processed cycle or immunofluorescence protocols. according to the qPCR, β-Gal staining, apoptosis, cell cycle or immunofluorescence protocols.

| Structure (SMILES) | HAS2 expression |
| --- | --- |
| NC(=O)NC1NC(=O)NC1=O (stereo not shown) [Allantoin, reference compound] | - |
| COC1=C(OC)C(=O)C(CCCCCCCCCCO)=C(C)C1=O [Idebenone, reference compound] | - |

tested on: H3K9ac (the target of SIRT1, SIRT2 and SIRT6); assay: Sirtuin activity assay in HDF: H3K9ac levels (Western blot); type: cell-based, human; settings: HDF treated 24h, Figure 1B; note: key: ↑: increase; ↓: decrease; hyphens that indicate no effect (-)
Experimental: (§8) Figure 1 (A) Schematic representation of the compound testing for sirtuin activity evaluation in HDF. Cells were treated with or without the compounds for 24h and harvested for analysis. […] (C) Western Blot analysis and (D) quantification of H4K16ac and H3K9ac levels in cells treated with Resveratrol or Shikimic acid at the indicated concentrations. H4K16 and H3K9 levels were normalized to H4 and H3 levels respectively. Student T-test, *p<0.05, **p<0.01, ***p<0.001.
(§9) HDFs were plated in 100x20 mm2 cell culture plates and after 24h, fresh cell culture medium containing the compounds was added. After 24h, cells were detached with cell scrapers, harvested, and processed for qPCR or western blot.
(§10) Protein levels were analyzed as previously described. Cells were directly lysed in 1x Laemmli Buffer (Bio-Rad, USA), incubated at 95° C and centrifuged. Supernatant was subjected to SDS-polyacrylamide gel electrophoresis, and successive steps were performed as described. The list of antibodies used is included in Supplementary Table 2.

| Structure (SMILES) | SIRT1,2,6 H3K9ac |
| --- | --- |
| O=C(O)c1cc(O)c(O)c(O)c1 [Gallic acid] | - |
| COC1=C(OC)C(=O)C(CCCCCCCCCCO)=C(C)C1=O [Idebenone, reference compound] | - |
| O=C(CCc1ccc(O)cc1)c1c(O)cc(O)cc1O [Phloretin] | - |
| NCCS(=O)(=O)O [Taurine] | - |
| C[C@@H]1O[C@@H](O[C@@H]2[C@@H](O)[C@H](OCCc3ccc(O)c(O)c3)O[C@H](CO)[C@H]2OC(=O)/C=C/c2ccc(O)c(O)c2)[C@H](O)[C@H](O)[C@H]1O [Verbascoside] | - |

tested on: H4K16ac (the target of SIRT1 and SIRT2); assay: Sirtuin activity assay in HDF: H4K16ac levels (Western blot); type: cell-based, human; settings: HDF treated 24h; for SIRT1,2 H4K16ac: key: ↑: increase; ↓: decrease; hyphens that indicate no effect (-)
Experimental: as §8, §9, §10

| Structure (SMILES) | effect on H4K16ac levels |
| --- | --- |
| O=C(CCc1ccc(O)cc1)c1c(O)cc(O)cc1O [Phloretin] | had an effect solely on H4K16ac |

same assay, conditions: HDF treated 24h, Figure 1B

| Structure (SMILES) | SIRT1,2 H4K16ac |
| --- | --- |
| NC(=O)NC1NC(=O)NC1=O (stereo not shown) [Allantoin, reference compound] | - |
| O=C(O)c1cc(O)c(O)c(O)c1 [Gallic acid] | - |
| NCCS(=O)(=O)O [Taurine] | - |
| C[C@@H]1O[C@@H](O[C@@H]2[C@@H](O)[C@H](OCCc3ccc(O)c(O)c3)O[C@H](CO)[C@H]2OC(=O)/C=C/c2ccc(O)c(O)c2)[C@H](O)[C@H](O)[C@H]1O [Verbascoside] | - |

tested on: UVB-irradiated human dermal fibroblasts (HDFs); assay: UVB-induced senescence assay: SA-β-Gal staining; type: cell-based; settings: HDF, 2 cycles of UVB, compound day 1 to 7, Figure 2B; for β-Gal: key: ↑: increase; ↓: decrease; hyphens that indicate no effect (-)
Experimental: as §2, §3, §1, §4, §5, §6, §7

| Structure (SMILES) | β-Gal |
| --- | --- |
| NC(=O)NC1NC(=O)NC1=O (stereo not shown) [Allantoin, reference compound] | - |
| O=C(O)c1cc(O)c(O)c(O)c1 [Gallic acid] | - |
| COC1=C(OC)C(=O)C(CCCCCCCCCCO)=C(C)C1=O [Idebenone, reference compound] | - |
| O=C(CCc1ccc(O)cc1)c1c(O)cc(O)cc1O [Phloretin] | - |
| NCCS(=O)(=O)O [Taurine] | - |
| C[C@@H]1O[C@@H](O[C@@H]2[C@@H](O)[C@H](OCCc3ccc(O)c(O)c3)O[C@H](CO)[C@H]2OC(=O)/C=C/c2ccc(O)c(O)c2)[C@H](O)[C@H](O)[C@H]1O [Verbascoside] | - |

same assay, conditions: UVB-irradiated HDF

| Structure (SMILES) | SA-β-Gal accumulation/staining |
| --- | --- |
| NCCS(=O)(=O)O [Taurine] | did not change the level of SA-β-Gal staining |
| C[C@@H]1O[C@@H](O[C@@H]2[C@@H](O)[C@H](OCCc3ccc(O)c(O)c3)O[C@H](CO)[C@H]2OC(=O)/C=C/c2ccc(O)c(O)c2)[C@H](O)[C@H](O)[C@H]1O [Verbascoside] | did not change the level of SA-β-Gal staining |

same assay, conditions: UVB-irradiated HDF, SA 10, 25, 50 mM plus EX-527 1 μM, AGK2 2 μM or OSS128167 200 μM

| Structure (SMILES) | effect of sirtuin inhibitor on the protective effect of SA on senescence (SA-β-Gal and HAS2 expression) |
| --- | --- |
| N#C/C(=C\c1ccc(-c2cc(Cl)ccc2Cl)o1)C(=O)Nc1cccc2ncccc12 [AGK2, reference compound] | produced no clear effect |
| O=C(Nc1ccc(O)c(C(=O)O)c1)c1cccc(NC(=O)c2ccco2)c1 [OSS128167, reference compound] | produced no clear effect |
